# In patent publication US20230405134A1, “NOVEL PROTAC CHIMERIC COMPOUND, AND PHARMACEUTICAL COMPOSITION COMPRISING SAME FOR PREVENTING, AMELIORATING, OR TREATING DISEASES THROUGH TARGET PROTEIN DEGRADATION” (POSTECH RESEARCH AND BUSINESS DEVELOPMENT FOUNDATION, priority 2020, published 2023):
# Where a SMILES comes first, the peptide text is derived from it. Bridges are numbered along the chain shown (N, C = ends). [ ]: non-standard residue; d: D form. Cha = N[C@@H](CC1CCCCC1)C(=O)O; S5 = C=CCCC[C@](C)(N)C(=O)O
# Key:
# [1] = molecular target: T1, PAS-B domain of SRC-1 (Homo sapiens, UniProt Q15788); experiment: Competitive fluorescence polarization (FP) assay against fluorescently labeled STAT-6 peptide; assay type: binding; settings: STAT-6 peptide 100 nM, PAS-B domain 5 μM
# T1 construct: PAS-B domain of human SRC-1 (residues 257-385) tagged with His6; His6 (cleaved yes); made in house; host or cells: E. coli BL21 (DE3) pLysS
# T1 sequence (Q15788 257-385): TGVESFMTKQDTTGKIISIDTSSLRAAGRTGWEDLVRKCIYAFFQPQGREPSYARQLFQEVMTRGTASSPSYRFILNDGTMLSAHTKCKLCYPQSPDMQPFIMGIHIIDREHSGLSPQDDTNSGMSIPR
# Experimental: (§1) An expression plasmid of the PAS-B domain of human SRC-1 (residues 257-385) tagged with His6 was provided by Professor John. A. Robinson. (ChemBioChem 2008, 9, 1318-1322). The plasmid was transformed into BL21 (DE3) pLysS cells, and the protein was cultured in Luria-Bertani broth medium and induced with 0.5 mM IPTG at 18° C. for 16 hours. Cell disruption was performed by ultrasonic treatment in a buffer (50 mM Tris-HCl pH 8.0, 200 mM NaCl and 1 mM TCEP), and insoluble materials were removed by centrifugation. HisTrap™ column (GE Healthcare, 17-5255-01) chromatography was performed on the buffer and 500 mM of imidazole was applied for elution. In order to remove the His6-tag, TEV protease was used and the cleaved samples were loaded in HisTrap™ as described above. […]
# A competitive fluorescence polarization (FP) assay was performed to evaluate the binding affinity of ND1-YL2 to the target protein. […] After further incubation for 1 hour, the polarization of fluorescence was measured by a Tecan F200 microplate reader (excitation wavelength: 485 nm; emission wavelength: 535 nm). IC50 values were determined using non-linear regression and fitted with GraphPad Prism® 4 software using the following equation: Y=Bottom+(Top-Bottom)/(1+10^X-LogIC50) (FIG. 11A). […] The binding affinity was calculated as described above (FIG. 11B).
# [2] = molecular target: T2, SRC-1/ND1-YL2/UBR box (UniProt P19812+Q15788); experiment: SEC-MALS ternary complex formation; assay type: binding; settings: SRC-1 alone 20 kDa, UBR box alone 12 kDa
# T2 construct: PAS-B domain of human SRC-1 (residues 257-385) tagged with His6; UBR box (residues 113-194) in the UBR1 E3 ubiquitin ligase of S. cerevisiae; His6 (cleaved yes); made in house; host or cells: E. coli BL21 (DE3) pLysS (SRC-1 PAS-B)
# T2 sequence (Q15788 257-385): T1 sequence (Q15788 257-385)
# T2 sequence (P19812 113-194): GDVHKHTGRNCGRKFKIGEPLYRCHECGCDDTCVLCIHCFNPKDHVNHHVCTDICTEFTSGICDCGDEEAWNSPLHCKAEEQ
# Experimental: as §1, with “above. The SRC-1 was further purified by size exclusion chromatography (HiLoad™ 16/600 Superdex 75 pg) in a final buffer of 20 mM Tris-HCl pH 7.5, 150 mM NaCl and 1 mM TCEP.” for “above.”
# The next step was to confirm whether ND1-YL2 could indeed form a ternary complex. […] Light scattering and differential refractive index data were collected and analyzed using ASTRA®V software (Wyatt Technology) (FIG. 12A). The individual molecules SRC-1 and UBR box had molecular masses of 20 and 12 kDa, respectively, and were detected to be 40 kDa in the presence of ND1-YL2, which is a result showing that a ternary complex was formed (FIG. 12A).
# [3] = test system: MDA-MB-231-RFP cells; experiment: Pulmonary metastasis model in mice; assay type: in vivo, BALB/c-nude mice; settings: cells treated with 100 μM for 12 hours, intravenously injected, flow cytometry of lungs after two weeks
# Experimental: It was confirmed whether ND1-YL2 could inhibit cancer metastasis through mice model. MDA-MB-231-RFP cells expressing red fluorescent protein (RFP) were cultured in DMEM (Welgene) containing 10% FBS (Omega Scientific Inc.) under the conditions of 37° C. and 5% CO2. 5-week-old BALB/c-nude mice (OriententBio Inc.) were maintained in a sterile environment and had free access to food and water. All animal procedures were approved by the Organ Animal Care and Use Committee of POSTECH. For the pulmonary metastasis model, MDA-MB-231-RFP cells treated with DMSO or 100 μM of ND1-YL2 for 12 hours were intravenously injected at 10^6 cells per mouse, followed by […]. The lungs were harvested and prepared in a single cell suspension and filtered through a 100 μm cell strainer (Corning). It was further cultured for 2 minutes in ACK lysis buffer (Gibco). The samples were analyzed by LSR Fortessa (BD Biosciences). […] To visualize lung metastasis, lung sections were prepared and dyed with Haemotoxylin and Eosin (H&E) stain.
structure (smiles),measurement,setting,value
CC(C)C[C@H](NC(=O)[C@H](C)NC(=O)[C@H](C)NC(=O)[C@H](C)NC(=O)[C@H](C)NC(=O)[C@H](CC(C)C)NC(=O)[C@@H](N)CCCNC(=N)N)C(=O)N[C@@H](CC(C)C)C(=O)N1CCC[C@H]1C(=O)N1CCC[C@H]1C(=O)N[C@H](C(=O)N[C@@H](CCC(=O)O)C(=O)N[C@@H](CCC(N)=O)C(=O)N[C@@H](CC(=O)O)C(=O)N[C@@H](CC(C)C)C(=O)N[C@@]1(C)CCC/C=C\CCC[C@@](C)(C(=O)N[C@@H](Cc2ccc(O)cc2)C(N)=O)NC(=O)[C@H](CC2CCCCC2)NC(=O)[C@H](CC(C)C)NC(=O)[C@H](CCCCN)NC1=O)[C@@H](C)O [ND1-YL2] (H-RLAAAALLPPTEQDL[S5]KL[Cha][S5]Y-NH2; staple (Z) 16-20),Ki,[1],320 nM
same,Molecular mass detected for SRC-1 and UBR box in the presence of compound,[2],40 kDa
same,Reduction of infiltrated MDA-MB-231-RFP cells in lungs compared to vehicle samples,[3],40%
